Data: patent US12365928B2, “Scalable biosynthesis of the seaweed neurochemical kainic acid” (The Regents of the University of California, priority 2018, dated 2025)
Entries after “also recorded” stand apart in the source; their conditions may differ.

Columns and labels:
DsKabA = molecular target: T1, DsKabA (Digenea simplex, UniProt A0A4D6IA24); test: DsKabA activity and substrate specificity assay (LCMS); type: biochemical; settings: 23° C., 5 h, LCMS (FIG. 8); for turnover to N-prenylated product when L-glutamate is exchanged for another amino acid: 5 mM amino acid, 1 mM DMAPP, 5 mM MgCl2, 20 μM DsKabA
T1 construct: DsKabA p28 For; His6 (N); made in house; host or cells: E. coli BL-21
T1 sequence (A0A4D6IA24 1-439): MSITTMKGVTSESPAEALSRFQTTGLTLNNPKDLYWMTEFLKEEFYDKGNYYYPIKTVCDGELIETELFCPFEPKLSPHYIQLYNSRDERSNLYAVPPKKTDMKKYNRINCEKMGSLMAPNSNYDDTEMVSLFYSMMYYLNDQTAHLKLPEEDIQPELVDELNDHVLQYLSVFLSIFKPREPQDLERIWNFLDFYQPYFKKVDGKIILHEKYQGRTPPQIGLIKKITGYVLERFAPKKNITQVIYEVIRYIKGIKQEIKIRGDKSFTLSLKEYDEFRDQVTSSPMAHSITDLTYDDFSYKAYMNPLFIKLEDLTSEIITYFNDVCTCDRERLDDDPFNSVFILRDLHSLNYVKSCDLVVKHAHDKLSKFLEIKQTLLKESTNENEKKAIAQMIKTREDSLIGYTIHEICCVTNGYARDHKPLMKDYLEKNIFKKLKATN
Description: To test DsKabA activity and substrate specificity, a 50 μL reaction containing 5 mM MgCl2, 5 mM amino acid (L-Glu, D-Glu, L-Gln, L-Asp, L-Asn, or Gly), 1 mM prenyl donor (DMAPP or GPP), and 20 μM DsKabA in a buffer of 300 mM KCl and 50 mM HEPES pH 8.0 was incubated at 23° C. for 5 h. One equivalent of 0.1% formic acid in H2O was added and filtered with a VWR PES 3 k 500 μL spin column. The flow through was analyzed by an Agilent Technologies 1200 Series system with a diode-array detector coupled to an Agilent Technologies 6530 accurate-mass Q-TOF LCMS using the following method on a Synergi Polar-RP 4μ 250×4.6 mm column at 0.75 mL/min: 0% B (4.5 min), 0 to 5% B (0.5 min), 5 to 26% B (9 min), 26 to 80% B (9 min), 80 to 100% B (1 min), 100% B (1.5 min), 100 to 0% B (2.5 min), 0% B (2 min), wherein A=0.1% aqueous formic acid, and B=0.1% formic acid in acetonitrile.

[1] = test system: ionotropic glutamate receptor (iGluR); settings: literature statement; cited from earlier work
[2] = humans in vivo; literature statement; cited from earlier work

Compound	turnover to N-prenylated product when L-glutamate is exchanged for another amino acid (DsKabA)	iGluR bioactivity [1]	also measured
N[C@H](CCC(=O)O)C(=O)O [D-glutamate]	diminished turnover	–	–
CC(C)=CCC/C(C)=C/COP(=O)(O)OP(=O)(O)O [GPP]	–	–	product formed when DMAPP is replaced by another prenyl donor (DsKabA; 1 mM prenyl donor with 5 mM L-glutamate, 20 μM DsKabA): formation of N-geranyl-L-glutamic acid (L-NGG)
NC(=O)C[C@H](N)C(=O)O [L-asparagine]	did not produce appreciable amounts of N-prenylated product	–	–
N[C@@H](CC(=O)O)C(=O)O [L-aspartate]	did not produce appreciable amounts of N-prenylated product	–	–
NC(=O)CC[C@H](N)C(=O)O [L-glutamine]	did not produce appreciable amounts of N-prenylated product	–	–
O=C(O)C[C@@H]1[C@@H](C(=O)O)NC[C@@H]1c1ccc(C(=O)O)[nH]c1=O [acromelic acid]	–	iGluR agonistic bioactivity	–
C/C(=C/C=C/[C@@H](C)C(=O)O)[C@H]1CN[C@H](C(=O)O)[C@H]1CC(=O)O [domoic acid]	–	–	excitotoxic / neurological effects [2]: causes severe neurological problems
NCC(=O)O [glycine]	did not produce appreciable amounts of N-prenylated product	–	–
C=C(C)[C@H]1CN[C@H](C(=O)O)[C@H]1CC(=O)O [kainic acid]	–	ionotropic glutamate receptor (iGluR) agonist; also recorded: agonistic activity	excitotoxic / neurological effects [2]: does not appear to produce excitotoxic effects
kainic acid lactone	–	iGluR antagonist	–
